Data published in patent US20210171598A1, “PEPTIDE HORMONE WITH ONE OR MORE O-GLYCANS” (priority 2017, published 2021).
Read-outs that look alike come from different tables or passages of the source.

Biological target: neprilysin (NEP) (Homo sapiens, UniProt P08473)
Assay: In vitro degradation by neprilysin, MALDI-TOF time course
Description: Many peptide hormones are destined for endocrine circulation where they are rapidly degraded with half-lives reaching only a few minutes^6-8.
For enzymatic degradation assays using either NEP or DPP-IV (R&D systems, UK), an enzyme titration was carried out to ensure full degradation within one hour of reaction time.
MALDI-TOF-MS was performed on a Bruker Autoflex instrument (Bruker Daltonik GmbH, Bremen, Germany) by mixing the quenched aliquots with a saturated solution of α-Cyano-4-hydroxycinnamic acid in ACN/H2O/TFA (70:30:0.1) at a ratio 1:1 on a target steel plate and mass-spectra were acquired in linear mode.
Reactions were performed in 50 mM Tris, 0.05% Brij-35, pH 9 (Neprilysin), or 50 mM Tris, 20 mM NaCl, pH 7.5 (IDE) and incubated at 37° C.

Sequence of neprilysin (NEP) (P08473 whole entry): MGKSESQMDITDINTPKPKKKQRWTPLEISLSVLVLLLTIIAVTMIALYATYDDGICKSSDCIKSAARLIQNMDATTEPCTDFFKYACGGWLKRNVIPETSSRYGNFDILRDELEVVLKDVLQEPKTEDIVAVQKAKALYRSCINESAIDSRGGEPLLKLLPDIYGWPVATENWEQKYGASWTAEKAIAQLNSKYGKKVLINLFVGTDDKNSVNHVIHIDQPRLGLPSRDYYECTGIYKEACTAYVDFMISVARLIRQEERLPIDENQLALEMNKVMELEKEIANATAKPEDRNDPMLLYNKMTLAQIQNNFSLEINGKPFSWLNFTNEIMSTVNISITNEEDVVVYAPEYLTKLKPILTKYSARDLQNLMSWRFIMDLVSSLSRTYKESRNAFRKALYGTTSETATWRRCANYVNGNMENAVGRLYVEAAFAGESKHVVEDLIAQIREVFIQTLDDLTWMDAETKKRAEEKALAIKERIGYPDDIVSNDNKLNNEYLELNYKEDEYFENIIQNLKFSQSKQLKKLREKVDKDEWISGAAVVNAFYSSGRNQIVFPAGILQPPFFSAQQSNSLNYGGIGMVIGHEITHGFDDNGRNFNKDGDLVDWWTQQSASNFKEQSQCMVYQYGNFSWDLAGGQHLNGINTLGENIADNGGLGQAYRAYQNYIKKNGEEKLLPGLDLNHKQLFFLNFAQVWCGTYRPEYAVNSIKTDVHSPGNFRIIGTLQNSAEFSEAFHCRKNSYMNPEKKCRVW

For `CC[C@H](C)[C@@H]1NC(=O)[C@H](CCCNC(=N)N)NC(=O)[C@H](CC(=O)O)NC(=O)[C@H](CCSC)NC(=O)[C@H](CCCNC(=N)N)NC(=O)CNC(=O)CNC(=O)[C@H](Cc2ccccc2)NC(=O)[C@@H](NC(=O)[C@H](CO)NC(=O)[C@H](CO)NC(=O)[C@H](CCCNC(=N)N)NC(=O)[C@H](CCCNC(=N)N)NC(=O)[C@H](CC(C)C)NC(=O)[C@@H](N)CO)CSSC[C@@H](C(=O)N[C@@H](CC(N)=O)C(=O)N[C@@H](CO)C(=O)N[C@@H](Cc2ccccc2)C(=O)N[C@@H](CCCNC(=N)N)C(=O)N[C@@H](Cc2ccc(O)cc2)C(=O)O)NC(=O)CNC(=O)[C@H](CC(C)C)NC(=O)CNC(=O)[C@H](CO[C@H]2O[C@H](CO)[C@H](O)[C@H](O)[C@H]2NC(C)=O)NC(=O)[C@H](CCC(N)=O)NC(=O)[C@H](C)NC(=O)CNC1=O` [ANP-Ser19/Tn], which “major degradation products remained detectable after incubation with neprilysin” value (37° C.) is on record?
Its value is 24 h.

What about the “residual full length / partially intact peptide detectable after incubation with NEP” value (37° C., MALDI-TOF) of the same molecule?
Its value is 60 min.

For `CC[C@H](C)[C@H](NC(=O)[C@H](CO)NC(=O)[C@H](CC(N)=O)NC(=O)[C@H](CC(C)C)NC(=O)[C@H](Cc1ccc(O)cc1)NC(=O)[C@H](CCCCN)NC(=O)[C@H](CCCCN)NC(=O)[C@@H](NC(=O)[C@H](C)NC(=O)[C@H](CCSC)NC(=O)[C@H](CCC(N)=O)NC(=O)[C@H](CCCCN)NC(=O)[C@H](CCCNC(=N)N)NC(=O)[C@H](CC(C)C)NC(=O)[C@H](CCCNC(=N)N)NC(=O)[C@@H](NC(=O)[C@H](Cc1ccc(O)cc1)NC(=O)[C@H](CC(N)=O)NC(=O)[C@H](CC(=O)O)NC(=O)[C@@H](NC(=O)[C@H](Cc1ccccc1)NC(=O)[C@@H](NC(=O)[C@H](C)NC(=O)[C@H](CC(=O)O)NC(=O)[C@H](CO)NC(=O)[C@@H](N)Cc1c[nH]cn1)C(C)C)[C@@H](C)O[C@H]1O[C@H](CO)[C@H](O)[C@H](O)[C@H]1NC(C)=O)[C@@H](C)O)C(C)C)C(=O)N[C@@H](CC(C)C)C(=O)N[C@@H](CC(N)=O)C(N)=O` [VIP-Thr7/Tn], which “residual full length / partially intact peptide detectable after incubation with NEP” value (37° C., MALDI-TOF) is on record?
The value was 15 min.

How did the “residual full length / partially intact peptide detectable after incubation with NEP” value (37° C., MALDI-TOF) turn out when `CC[C@H](C)[C@@H]1NC(=O)[C@H](CCCNC(=N)N)NC(=O)[C@H](CC(=O)O)NC(=O)[C@H](CCSC)NC(=O)[C@H](CCCNC(=N)N)NC(=O)CNC(=O)CNC(=O)[C@H](Cc2ccccc2)NC(=O)[C@@H](NC(=O)[C@H](CO)NC(=O)[C@H](CO)NC(=O)[C@H](CCCNC(=N)N)NC(=O)[C@H](CCCNC(=N)N)NC(=O)[C@H](CC(C)C)NC(=O)[C@@H](N)CO)CSSC[C@@H](C(=O)N[C@@H](CC(N)=O)C(=O)N[C@@H](CO[C@H]2O[C@H](CO)[C@H](O)[C@H](O)[C@H]2NC(C)=O)C(=O)N[C@@H](Cc2ccccc2)C(=O)N[C@@H](CCCNC(=N)N)C(=O)N[C@@H](Cc2ccc(O)cc2)C(=O)O)NC(=O)CNC(=O)[C@H](CC(C)C)NC(=O)CNC(=O)[C@H](CO)NC(=O)[C@H](CCC(N)=O)NC(=O)[C@H](C)NC(=O)CNC1=O` [ANP-Ser25/Tn] was run?
The value was 15 min.

Which “major degradation products remained detectable after incubation with neprilysin” value (37° C.) does the source give for `CC[C@H](C)[C@@H]1NC(=O)[C@H](CCCNC(=N)N)NC(=O)[C@H](CC(=O)O)NC(=O)[C@H](CCSC)NC(=O)[C@H](CCCNC(=N)N)NC(=O)CNC(=O)CNC(=O)[C@H](Cc2ccccc2)NC(=O)[C@@H](NC(=O)[C@H](CO)NC(=O)[C@H](CO)NC(=O)[C@H](CCCNC(=N)N)NC(=O)[C@H](CCCNC(=N)N)NC(=O)[C@H](CC(C)C)NC(=O)[C@@H](N)CO)CSSC[C@@H](C(=O)N[C@@H](CC(N)=O)C(=O)N[C@@H](CO[C@H]2O[C@H](CO)[C@H](O)[C@H](O)[C@H]2NC(C)=O)C(=O)N[C@@H](Cc2ccccc2)C(=O)N[C@@H](CCCNC(=N)N)C(=O)N[C@@H](Cc2ccc(O)cc2)C(=O)O)NC(=O)CNC(=O)[C@H](CC(C)C)NC(=O)CNC(=O)[C@H](CO[C@H]2O[C@H](CO)[C@H](O)[C@H](O)[C@H]2NC(C)=O)NC(=O)[C@H](CCC(N)=O)NC(=O)[C@H](C)NC(=O)CNC1=O` [ANP-Ser19+25/Tn] here?
Its value is 24 h.

And the “residual full length / partially intact peptide detectable after incubation with NEP” value (37° C., MALDI-TOF)?
Its value is 30 min.

“Ser23-T: Galanin Ser23 T extended glycoform” was tested. Which “time to complete degradation by NEP” value did it give?
Its value is 120 min.

With `CC(C)C[C@H](NC(=O)CNC(=O)[C@H](CCC(N)=O)NC(=O)[C@H](CC(C)C)NC(=O)[C@H](CC(C)C)NC(=O)[C@H](CCCNC(=N)N)NC(=O)[C@H](CCC(N)=O)NC(=O)[C@H](CC(C)C)NC(=O)[C@H](CCCNC(=N)N)NC(=O)[C@H](C)NC(=O)CNC(=O)[C@H](CCC(=O)O)NC(=O)[C@H](CCCNC(=N)N)NC(=O)[C@H](CC(C)C)NC(=O)[C@H](CCCNC(=N)N)NC(=O)[C@H](CO)NC(=O)[C@H](CC(C)C)NC(=O)[C@H](CCC(=O)O)NC(=O)[C@H](CO)NC(=O)[C@@H](NC(=O)[C@H](Cc1ccccc1)NC(=O)[C@@H](NC(=O)CNC(=O)[C@H](CC(=O)O)NC(=O)[C@H](CO)NC(=O)[C@@H](N)Cc1c[nH]cn1)[C@@H](C)O)[C@@H](C)O)C(=O)N[C@H](C(N)=O)C(C)C` [Secretin, reference compound] as the molecule, how does the “time to complete degradation by NEP” value (37° C., MALDI-TOF) read?
The value was no more than 60 min.

Which “residual full length / partially intact peptide detectable after incubation with NEP” value (37° C., MALDI-TOF) does the source give for `CC[C@H](C)[C@H](NC(=O)[C@H](CO)NC(=O)[C@H](CC(N)=O)NC(=O)[C@H](CC(C)C)NC(=O)[C@H](Cc1ccc(O)cc1)NC(=O)[C@H](CCCCN)NC(=O)[C@H](CCCCN)NC(=O)[C@@H](NC(=O)[C@H](C)NC(=O)[C@H](CCSC)NC(=O)[C@H](CCC(N)=O)NC(=O)[C@H](CCCCN)NC(=O)[C@H](CCCNC(=N)N)NC(=O)[C@H](CC(C)C)NC(=O)[C@H](CCCNC(=N)N)NC(=O)[C@@H](NC(=O)[C@H](Cc1ccc(O)cc1)NC(=O)[C@H](CC(N)=O)NC(=O)[C@H](CC(=O)O)NC(=O)[C@@H](NC(=O)[C@H](Cc1ccccc1)NC(=O)[C@@H](NC(=O)[C@H](C)NC(=O)[C@H](CC(=O)O)NC(=O)[C@H](CO)NC(=O)[C@@H](N)Cc1c[nH]cn1)C(C)C)[C@@H](C)O[C@H]1O[C@H](CO)[C@H](O)[C@H](O[C@@H]2O[C@H](CO)[C@H](O)[C@H](O)[C@H]2O)[C@H]1NC(C)=O)[C@@H](C)O)C(C)C)C(=O)N[C@@H](CC(C)C)C(=O)N[C@@H](CC(N)=O)C(N)=O` [VIP-Thr7/T] here?
The value was 30 min.

How did the “remained intact / resistant to NEP degradation even after” value turn out when “Galanin-Ser55/ST: sialylated Galanin variant” was run?
Its value is 24 h.

What about the “state after overnight incubation with neprilysin” value of the same molecule?
Its value is “remained partially intact”.

`CC(=O)N[C@H]1[C@@H](O[C@H](C)[C@H](NC(=O)[C@H](Cc2ccccc2)NC(=O)[C@@H](NC(=O)CNC(=O)[C@H](CC(=O)O)NC(=O)[C@H](CO)NC(=O)[C@@H](N)Cc2c[nH]cn2)[C@@H](C)O)C(=O)N[C@@H](CO)C(=O)N[C@@H](CCC(=O)O)C(=O)N[C@@H](CC(C)C)C(=O)N[C@@H](CO)C(=O)N[C@@H](CCCNC(=N)N)C(=O)N[C@@H](CC(C)C)C(=O)N[C@@H](CCCNC(=N)N)C(=O)N[C@@H](CCC(=O)O)C(=O)NCC(=O)N[C@@H](C)C(=O)N[C@@H](CCCNC(=N)N)C(=O)N[C@@H](CC(C)C)C(=O)N[C@@H](CCC(N)=O)C(=O)N[C@@H](CCCNC(=N)N)C(=O)N[C@@H](CC(C)C)C(=O)N[C@@H](CC(C)C)C(=O)N[C@@H](CCC(N)=O)C(=O)NCC(=O)N[C@@H](CC(C)C)C(=O)N[C@H](C(N)=O)C(C)C)O[C@H](CO)[C@H](O)[C@@H]1O` [Secretin-Thr7-Tn] was tested. Which “remained (completely) intact after incubation with NEP” value (37° C., MALDI-TOF) did it give?
The value was 60 min.
